# ChEMBL document CHEMBL5518248, “Design, Synthesis, and Biological Evaluation of Novel Arylomycins against Multidrug-Resistant Gram-Negative Bacteria” (J Med Chem, 2024)
# Legend:
# Type in all cases: functional
# Conditions in all cases: time 18-20 hrs
# Escherichia coli [1] = test: Antibacterial activity against Escherichia coli 14-4 assessed as inhibition of bacterial growth measured after 18 to 20 hrs by broth microdilution method
# Klebsiella pneumoniae [2] = test: Antibacterial activity against Klebsiella pneumoniae 15-5 assessed as inhibition of bacterial growth measured after 18 to 20 hrs by broth microdilution method
# Escherichia coli [3] = test: Antibacterial activity against Escherichia coli 14-2 assessed as inhibition of bacterial growth measured after 18 to 20 hrs by broth microdilution method
# Escherichia coli [4] = test: Antibacterial activity against Escherichia coli ATCC 35218 assessed as inhibition of bacterial growth measured after 18 to 20 hrs by broth microdilution method
# Acinetobacter baumannii [5] = test: Antibacterial activity against Acinetobacter baumannii 17-8 assessed as inhibition of bacterial growth measured after 18 to 20 hrs by broth microdilution method
# Klebsiella pneumoniae [6] = test: Antibacterial activity against Klebsiella pneumoniae 15-4 assessed as inhibition of bacterial growth measured after 18 to 20 hrs by broth microdilution method
# Klebsiella pneumoniae [7] = test: Antibacterial activity against Klebsiella pneumoniae 15-1 assessed as inhibition of bacterial growth measured after 18 to 20 hrs by broth microdilution method
# Pseudomonas aeruginosa [8] = test: Antibacterial activity against Pseudomonas aeruginosa 17-1 assessed as inhibition of bacterial growth measured after 18 to 20 hrs by broth microdilution method
# Acinetobacter baumannii [9] = test: Antibacterial activity against Acinetobacter baumannii 17-2 assessed as inhibition of bacterial growth measured after 18 to 20 hrs by broth microdilution method
# Pseudomonas aeruginosa [10] = test: Antibacterial activity against Pseudomonas aeruginosa 19-5 assessed as inhibition of bacterial growth measured after 18 to 20 hrs by broth microdilution method
Compound,MIC (Escherichia coli [1]),MIC (Klebsiella pneumoniae [2]),MIC (Escherichia coli [3]),MIC (Escherichia coli [4]),MIC (Acinetobacter baumannii [5]),MIC (Klebsiella pneumoniae [6]),MIC (Klebsiella pneumoniae [7]),MIC (Pseudomonas aeruginosa [8]),MIC (Acinetobacter baumannii [9]),MIC (Pseudomonas aeruginosa [10])
Cc1nc(-c2ccc(CSSC(C)(C)C)c(F)c2)ncc1C(=O)N[C@@H](CCN)C(=O)N(C)[C@@H]1C(=O)N[C@@H](C)C(=O)N[C@H](C(=O)NCC#N)Cc2ccc(OCCN)c(c2)-c2cc1ccc2OCCN.O=C(O)C(F)(F)F.O=C(O)C(F)(F)F.O=C(O)C(F)(F)F.O=C(O)C(F)(F)F,0.125 µg/mL,0.25 µg/mL,0.125 µg/mL,0.06 µg/mL,1 µg/mL,0.25 µg/mL,0.25 µg/mL,4 µg/mL,1 µg/mL,4 µg/mL
CSC(=O)CNC(=O)[C@@H]1Cc2ccc(OCCN)c(c2)-c2cc(ccc2OCCN)[C@H](N(C)C(=O)[C@H](CCN)NC(=O)c2cnc(-c3ccc(C(C)(C)C)cc3)nc2C)C(=O)N[C@@H](C)C(=O)N1.O=C(O)C(F)(F)F.O=C(O)C(F)(F)F.O=C(O)C(F)(F)F.O=C(O)C(F)(F)F,1 µg/mL,0.5 µg/mL,4 µg/mL,0.5 µg/mL,16 µg/mL,1 µg/mL,0.25 µg/mL,64 µg/mL,64 µg/mL,64 µg/mL
CSCCSSCc1ccc(-c2ncc(C(=O)N[C@@H](CCN)C(=O)N(C)[C@@H]3C(=O)N[C@@H](C)C(=O)N[C@H](C(=O)NCC#N)Cc4ccc(OCCN)c(c4)-c4cc3ccc4OCCN)c(C)n2)cc1.O=C(O)C(F)(F)F.O=C(O)C(F)(F)F.O=C(O)C(F)(F)F.O=C(O)C(F)(F)F,0.25 µg/mL,0.25 µg/mL,0.25 µg/mL,0.125 µg/mL,1 µg/mL,0.5 µg/mL,0.5 µg/mL,32 µg/mL,2 µg/mL,16 µg/mL
CCCCCCCSSCc1ccc(-c2ncc(C(=O)N[C@@H](CCN)C(=O)N(C)[C@@H]3C(=O)N[C@@H](C)C(=O)N[C@H](C(=O)NCC#N)Cc4ccc(OCCN)c(c4)-c4cc3ccc4OCCN)c(C)n2)cc1.O=C(O)C(F)(F)F.O=C(O)C(F)(F)F.O=C(O)C(F)(F)F.O=C(O)C(F)(F)F,1 µg/mL,2 µg/mL,1 µg/mL,2 µg/mL,2 µg/mL,2 µg/mL,2 µg/mL,4 µg/mL,2 µg/mL,4 µg/mL
Cc1nc(-c2ccc(C(C)(C)C)cc2)ncc1C(=O)N[C@@H](CCN)C(=O)N(C)[C@H]1Cc2ccc(OCCN)c(c2)-c2cc(ccc2OCCN)C[C@@H](C(=O)NCC#N)NC(=O)[C@H](C)NC1=O.Cl.Cl.Cl.Cl,64 µg/mL,> 64 µg/mL,64 µg/mL,61 µg/mL,> 64 µg/mL,> 64 µg/mL,> 64 µg/mL,> 64 µg/mL,> 64 µg/mL,> 64 µg/mL
Cc1nc(-c2ccc(C(C)(C)C)cc2)ncc1C(=O)N[C@@H](CCN)C(=O)N(C)[C@@H]1C(=O)N[C@@H](C)C(=O)N[C@H](C(=O)NCP(=O)(O)O)Cc2ccc(OCCN)c(c2)-c2cc1ccc2OCCN.Cl.Cl.Cl.Cl,0.25 µg/mL,0.25 µg/mL,1 µg/mL,0.25 µg/mL,4 µg/mL,0.5 µg/mL,0.5 µg/mL,64 µg/mL,8 µg/mL,64 µg/mL
Cc1nc(-c2ccc(CSSC(C)(C)C)cc2)ccc1C(=O)N[C@@H](CCN)C(=O)N(C)[C@@H]1C(=O)N[C@@H](C)C(=O)N[C@H](C(=O)NCC#N)Cc2ccc(OCCN)c(c2)-c2cc1ccc2OCCN.O=C(O)C(F)(F)F.O=C(O)C(F)(F)F.O=C(O)C(F)(F)F.O=C(O)C(F)(F)F,0.125 µg/mL,0.06 µg/mL,0.25 µg/mL,≤ 0.03 µg/mL,1 µg/mL,0.125 µg/mL,0.125 µg/mL,8 µg/mL,1 µg/mL,8 µg/mL
CSSC(C)(C)c1ccc(-c2ncc(C(=O)N[C@@H](CCN)C(=O)N(C)[C@@H]3C(=O)N[C@@H](C)C(=O)N[C@H](C(=O)O)Cc4ccc(OCCN)c(c4)-c4cc3ccc4OCCN)c(C)n2)cc1.O=C(O)C(F)(F)F.O=C(O)C(F)(F)F.O=C(O)C(F)(F)F.O=C(O)C(F)(F)F,0.06 µg/mL,≤ 0.03 µg/mL,≤ 0.03 µg/mL,≤ 0.03 µg/mL,2 µg/mL,0.25 µg/mL,≤ 0.03 µg/mL,> 64 µg/mL,4 µg/mL,> 64 µg/mL
C[C@@H]1NC(=O)[C@@H](N(C)C(=O)[C@H](CCN)NC(=O)c2cnc(-c3ccc(CSSC(C)(C)C)cc3)cc2Cl)c2ccc(OCCN)c(c2)-c2cc(ccc2OCCN)C[C@@H](C(=O)NCC#N)NC1=O.O=C(O)C(F)(F)F.O=C(O)C(F)(F)F.O=C(O)C(F)(F)F.O=C(O)C(F)(F)F,0.125 µg/mL,0.125 µg/mL,0.25 µg/mL,≤ 0.03 µg/mL,1 µg/mL,0.5 µg/mL,0.25 µg/mL,8 µg/mL,1 µg/mL,8 µg/mL
Cc1nc(-c2ccc(SSC(C)C)cc2)ncc1C(=O)N[C@@H](CCN)C(=O)N(C)[C@@H]1C(=O)N[C@@H](C)C(=O)N[C@H](C(=O)NCC#N)Cc2ccc(OCCN)c(c2)-c2cc1ccc2OCCN.O=C(O)C(F)(F)F.O=C(O)C(F)(F)F.O=C(O)C(F)(F)F.O=C(O)C(F)(F)F,≤ 0.03 µg/mL,0.06 µg/mL,0.06 µg/mL,≤ 0.03 µg/mL,0.25 µg/mL,0.06 µg/mL,0.06 µg/mL,4 µg/mL,0.5 µg/mL,4 µg/mL
Cc1nc(-c2ccc([C@H](C)SSC(C)(C)C)cc2)ncc1C(=O)N[C@@H](CCN)C(=O)N(C)[C@@H]1C(=O)N[C@@H](C)C(=O)N[C@H](C(=O)NCC#N)Cc2ccc(OCCN)c(c2)-c2cc1ccc2OCCN.O=C(O)C(F)(F)F.O=C(O)C(F)(F)F.O=C(O)C(F)(F)F.O=C(O)C(F)(F)F,≤ 0.03 µg/mL,0.125 µg/mL,≤ 0.03 µg/mL,≤ 0.03 µg/mL,0.25 µg/mL,0.125 µg/mL,0.125 µg/mL,4 µg/mL,0.25 µg/mL,1 µg/mL
CCCCCSSc1ccc(-c2ncc(C(=O)N[C@@H](CCN)C(=O)N(C)[C@@H]3C(=O)N[C@@H](C)C(=O)N[C@H](C(=O)NCC#N)Cc4ccc(OCCN)c(c4)-c4cc3ccc4OCCN)c(C)n2)cc1.O=C(O)C(F)(F)F.O=C(O)C(F)(F)F.O=C(O)C(F)(F)F.O=C(O)C(F)(F)F,0.25 µg/mL,0.5 µg/mL,0.25 µg/mL,0.5 µg/mL,1 µg/mL,0.5 µg/mL,1 µg/mL,4 µg/mL,2 µg/mL,4 µg/mL
Cc1nc(-c2ccc(C(C)(C)SSC(C)(C)C)cc2)ncc1C(=O)N[C@@H](CCN)C(=O)N(C)[C@@H]1C(=O)N[C@@H](C)C(=O)N[C@H](C(=O)NCC#N)Cc2ccc(OCCN)c(c2)-c2cc1ccc2OCCN.O=C(O)C(F)(F)F.O=C(O)C(F)(F)F.O=C(O)C(F)(F)F.O=C(O)C(F)(F)F,≤ 0.03 µg/mL,0.25 µg/mL,≤ 0.03 µg/mL,≤ 0.03 µg/mL,0.5 µg/mL,0.25 µg/mL,0.125 µg/mL,4 µg/mL,1 µg/mL,4 µg/mL
Cc1nc(-c2ccc([C@@H](C)SSC(C)(C)C)cc2)ncc1C(=O)N[C@@H](CCN)C(=O)N(C)[C@@H]1C(=O)N[C@@H](C)C(=O)N[C@H](C(=O)NCC#N)Cc2ccc(OCCN)c(c2)-c2cc1ccc2OCCN.O=C(O)C(F)(F)F.O=C(O)C(F)(F)F.O=C(O)C(F)(F)F.O=C(O)C(F)(F)F,≤ 0.03 µg/mL,0.125 µg/mL,≤ 0.03 µg/mL,≤ 0.03 µg/mL,0.5 µg/mL,0.25 µg/mL,0.25 µg/mL,4 µg/mL,0.5 µg/mL,4 µg/mL
